Target: Full-length inactive AKT1 (Homo sapiens, UniProt P31749)
Assay: Inactive Akt Alpha Screen Assay
Format: biochemical
Settings: values not marked with "*"; read-out: Akt1 IC50, (AlphaScreen)
In short: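 AlphaScreen read-out (excitation 640 nm, emission 570 nm) after 90 min incubation at room temperature in the dark. Signal comes from crosstide phosphorylation by AKT1, which was activated by added PDK1, MAPKAPK2, ATP and lipid vesicles, captured via phospho-AKT substrate antibody and streptavidin beads.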

Sequence of Full-length inactive AKT1 (P31749 whole entry): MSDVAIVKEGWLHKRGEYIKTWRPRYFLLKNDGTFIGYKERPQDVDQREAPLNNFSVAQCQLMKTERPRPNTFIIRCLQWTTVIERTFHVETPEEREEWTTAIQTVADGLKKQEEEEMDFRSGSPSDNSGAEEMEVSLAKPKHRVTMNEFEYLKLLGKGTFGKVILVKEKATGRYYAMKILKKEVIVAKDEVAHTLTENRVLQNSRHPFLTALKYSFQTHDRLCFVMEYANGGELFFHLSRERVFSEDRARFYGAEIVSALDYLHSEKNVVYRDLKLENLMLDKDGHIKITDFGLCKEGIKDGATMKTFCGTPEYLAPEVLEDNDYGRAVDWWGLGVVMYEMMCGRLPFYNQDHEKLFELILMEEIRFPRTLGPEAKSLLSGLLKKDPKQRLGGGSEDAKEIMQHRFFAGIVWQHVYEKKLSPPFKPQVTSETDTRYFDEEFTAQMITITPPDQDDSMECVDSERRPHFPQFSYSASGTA

SMILES	IC50
Nc1ncccc1-c1nc2ccc(-c3ccncc3)nc2n1-c1ccc(CNC(=O)c2cccc(F)c2)cc1 [Example 334, N-(4-(2-(2-aminopyridin-3-yl)-5-(pyridin-4-yl)-3H-imidazo[4,5-b]pyridin-3-yl)benzyl)-3-fluorobenzamide]	36 nM
N#Cc1cccc(-c2ccc3nc(-c4cccnc4N)n(-c4ccc(CNC(=O)c5cccc(F)c5)cc4)c3n2)c1 [Example 335, N-(4-(2-(2-aminopyridin-3-yl)-5-(3-cyanophenyl)-3H-imidazo[4,5-b]pyridin-3-yl)benzyl)-3-fluorobenzamide]	182 nM
COC(=O)c1ccc(-c2ccc3nc(-c4cccnc4N)n(-c4ccc(CNC(=O)c5cccc(F)c5)cc4)c3n2)cc1 [Example 336, methyl 4-(2-(2-aminopyridin-3-yl)-3-(4-((3-fluorobenzamido)methyl)phenyl)-3H-imidazo[4,5-b]pyridin-5-yl)benzoate]	320 nM
Nc1ncccc1-c1nc2ccc(-c3cncnc3)nc2n1-c1ccc(CNC(=O)c2cccc(F)c2)cc1 [Example 337, N-(4-(2-(2-aminopyridin-3-yl)-5-(pyrimidin-5-yl)-3H-imidazo[4,5-b]pyridin-3-yl)benzyl)-3-fluorobenzamide]	82 nM
CC(=O)Nc1cccc(-c2ccc3nc(-c4cccnc4N)n(-c4ccc(C5(NC(=O)OC(C)(C)C)CCC5)cc4)c3n2)c1 [Example 340, tert-butyl (1-(4-(5-(3-acetamidophenyl)-2-(2-aminopyridin-3-yl)-3H-imidazo[4,5-b]pyridin-3-yl)phenyl)cyclobutyl)carbamate]	350 nM
CNC(=O)Cc1ccc(-n2c(-c3cccnc3N)nc3ccc(-c4cccc(NC(C)=O)c4)nc32)cc1 [Example 341, 2-(4-(5-(3-acetamidophenyl)-2-(2-aminopyridin-3-yl)-3H-imidazo[4,5-b]pyridin-3-yl)phenyl)-N-methylacetamide]	32 nM
CC(=O)Nc1ccc(NC(=O)Cc2ccc(-n3c(-c4cccnc4N)nc4cc(F)cnc43)cc2)cc1 [Example 342, N-(4-acetamidophenyl)-2-(4-(2-(2-aminopyridin-3-yl)-6-fluoro-3H-imidazo[4,5-b]pyridin-3-yl)phenyl)acetamide]	61 nM
CC(=O)Nc1cccc(NC(=O)Cc2ccc(-n3c(-c4cccnc4N)nc4cc(C)cnc43)cc2)c1 [Example 343, N-(3-acetamidophenyl)-2-(4-(2-(2-aminopyridin-3-yl)-6-methyl-3H-imidazo[4,5-b]pyridin-3-yl)phenyl)acetamide]	110 nM
CC(=O)Nc1cccc(-c2nc3c(cc2C)nc(-c2cccnc2N)n3-c2ccc(CNC(=O)c3ccccc3)cc2)c1 [Example 344, N-(4-(5-(3-acetamidophenyl)-2-(2-aminopyridin-3-yl)-6-methyl-3H-imidazo[4,5-b]pyridin-3-yl)benzyl)benzamide]	23 nM
Cc1cc2nc(-c3cccnc3N)n(-c3ccc(CNC(=O)c4ccccc4)cc3)c2nc1-c1ccccc1 [Example 345, N-(4-(2-(2-aminopyridin-3-yl)-6-methyl-5-phenyl-3H-imidazo[4,5-b]pyridin-3-yl)benzyl)benzamide]	44 nM
Cc1cc2nc(-c3cccnc3N)n(-c3ccc(CNC(=O)c4ccccc4)cc3)c2nc1Cl [Example 346, N-(4-(2-(2-aminopyridin-3-yl)-5-chloro-6-methyl-3H-imidazo[4,5-b]pyridin-3-yl)benzyl)benzamide]	86 nM
CC(=O)Nc1cccc(C(=O)NCc2ccc(-n3c(-c4cccnc4N)nc4cc(C)c(C)nc43)cc2)c1 [Example 347, 3-acetamido-N-(4-(2-(2-aminopyridin-3-yl)-5,6-dimethyl-3H-imidazo[4,5-b]pyridin-3-yl)benzyl)benzamide]	54 nM
Cc1ccc2nc(-c3cccnc3N)n(-c3ccc(CC(=O)c4ccccc4)cc3)c2n1 [Example 349, 2-(4-(2-(2-aminopyridin-3-yl)-5-methyl-3H-imidazo[4,5-b]pyridin-3-yl)phenyl)-1-phenylethanone]	180 nM
CC(C)(C)OC(=O)NC1(c2ccc(-n3c(-c4cccnc4N)nc4ccc(-c5ccccc5)nc43)cc2)CCC1 [Example 350, tert-butyl (1-(4-(2-(2-aminopyridin-3-yl)-5-phenyl-3H-imidazo[4,5-b]pyridin-3-yl)phenyl)cyclobutyl)carbamate]	1400 nM
CC(C)(C)OC(=O)NCc1ccc(-n2c(-c3cccnc3N)nc3ccc(-c4cn[nH]c4)nc32)cc1 [Example 354, tert-butyl 4-(2-(2-aminopyridin-3-yl)-5-(1H-pyrazol-4-yl)-3H-imidazo[4,5-b]pyridin-3-yl)benzylcarbamate]	150 nM
CC(C)(C)OC(=O)NCc1ccc(-n2c(-c3cccnc3N)nc3ccc(-c4ccccc4)nc32)cc1 [Example 355, tert-butyl 4-(2-(2-aminopyridin-3-yl)-5-phenyl-3H-imidazo[4,5-b]pyridin-3-yl)benzylcarbamate]	270 nM
NCc1ccc(-n2c(-c3cccnc3N)nc3ccc(-c4cccc(C(=O)O)c4)nc32)cc1 [Example 357, 3-(3-(4-(aminomethyl)phenyl)-2-(2-aminopyridin-3-yl)-3H-imidazo[4,5-b]pyridin-5-yl)benzoic acid]	27 nM

SMILES	IC50
Nc1ncccc1-c1nc2cc(-c3ccccc3)cnc2n1-c1ccc(C2(N)CCC2)cc1 [Example 358, 3-(3-(4-(1-aminocyclobutyl)phenyl)-6-phenyl-3H-imidazo[4,5-b]pyridin-2-yl)pyridin-2-amine]	55 nM
CC(=O)Nc1cccc(-c2cnc3c(c2)nc(-c2cccnc2N)n3-c2ccc(C3(N)CCC3)cc2)c1 [Example 359, N-(3-(3-(4-(1-aminocyclobutyl)phenyl)-2-(2-aminopyridin-3-yl)-3H-imidazo[4,5-b]pyridin-6-yl)phenyl)acetamide]	57 nM
COC(=O)C1(c2ccc(-n3c(-c4cccnc4N)nc4cc(-c5ccccc5)cnc43)cc2)CCC1 [Example 361, methyl 1-(4-(2-(2-aminopyridin-3-yl)-6-phenyl-3H-imidazo[4,5-b]pyridin-3-yl)phenyl)cyclobutanecarboxylate]	360 nM
Nc1ncccc1-c1nc2cc(-c3ccccc3)cnc2n1-c1ccc(C2(C(=O)O)CCC2)cc1 [Example 363, 1-(4-(2-(2-aminopyridin-3-yl)-6-phenyl-3H-imidazo[4,5-b]pyridin-3-yl)phenyl)cyclobutanecarboxylic acid]	250 nM
CCOC(=O)c1cccc(-c2ccc3nc(-c4cccnc4N)n(-c4ccc(C5(N)CCC5)cc4)c3n2)c1 [Example 364, ethyl 3-(3-(4-(1-aminocyclobutyl)phenyl)-2-(2-aminopyridin-3-yl)-3H-imidazo[4,5-b]pyridin-5-yl)benzoate]	1.6 nM
NC(=O)c1cccc(-c2ccc3nc(-c4cccnc4N)n(-c4ccc(C5(N)CCC5)cc4)c3n2)c1 [Example 365, 3-(3-(4-(1-aminocyclobutyl)phenyl)-2-(2-aminopyridin-3-yl)-3H-imidazo[4,5-b]pyridin-5-yl)benzamide]	3 nM
CS(=O)(=O)Nc1ncccc1-c1nc2ccc(-c3ccccc3)nc2n1-c1ccc(C2(NS(C)(=O)=O)CCC2)cc1 [Example 366, N-(3-(3-(4-(1-(methylsulfonamido)cyclobutyl)phenyl)-5-phenyl-3H-imidazo[4,5-b]pyridin-2-yl)pyridin-2-yl)methanesulfonamide]	140 nM
CS(=O)(=O)NC1(c2ccc(-n3c(-c4cccnc4N)nc4ccc(-c5ccccc5)nc43)cc2)CCC1 [Example 367, N-(1-(4-(2-(2-aminopyridin-3-yl)-5-phenyl-3H-imidazo[4,5-b]pyridin-3-yl)phenyl)cyclobutyl)methanesulfonamide]	180 nM
Nc1ncc(Cl)cc1-c1nc2ccc(-c3ccccc3)nc2n1-c1ccc(C2(N)CCC2)cc1 [Example 368, 3-(3-(4-(1-aminocyclobutyl)phenyl)-5-phenyl-3H-imidazo[4,5-b]pyridin-2-yl)-5-chloropyridin-2-amine]	10 nM
CNC(=O)c1cccc(-c2ccc3nc(-c4cccnc4N)n(-c4ccc(CN)cc4)c3n2)c1 [Example 369, 3-(3-(4-(aminomethyl)phenyl)-2-(2-aminopyridin-3-yl)-3H-imidazo[4,5-b]pyridin-5-yl)-N-methylbenzamide]	5.4 nM
CNC(=O)c1cccc(-c2ccc3nc(-c4cccnc4N)n(-c4ccc(C5(N)CCC5)cc4)c3n2)c1 [Example 370, 3-(3-(4-(1-aminocyclobutyl)phenyl)-2-(2-aminopyridin-3-yl)-3H-imidazo[4,5-b]pyridin-5-yl)-N-methylbenzamide]	4.6 nM
CC(=O)c1cccc(-c2ccc3nc(-c4cccnc4N)n(-c4ccc(C5(N)CCC5)cc4)c3n2)c1 [Example 372, 1-(3-(3-(4-(1-aminocyclobutyl)phenyl)-2-(2-aminopyridin-3-yl)-3H-imidazo[4,5-b]pyridin-5-yl)phenyl)ethanone]	2.1 nM
Nc1ncccc1-c1nc2ccc(-c3ccccc3)nc2n1-c1ccc(C2(N)COC2)cc1 [Example 373, 3-(3-(4-(3-aminooxetan-3-yl)phenyl)-5-phenyl-3H-imidazo[4,5-b]pyridin-2-yl)pyridin-2-amine]	6.6 nM
Nc1ncccc1-c1nc2ccc(-c3cccc(CO)c3)nc2n1-c1ccc(C2(N)CCC2)cc1 [Example 374, (3-(3-(4-(1-aminocyclobutyl)phenyl)-2-(2-aminopyridin-3-yl)-3H-imidazo[4,5-b]pyridin-5-yl)phenyl)methanol]	1.3 nM
CS(=O)(=O)Nc1cccc(-c2ccc3nc(-c4cccnc4N)n(-c4ccc(C5(N)CCC5)cc4)c3n2)c1 [Example 375, N-(3-(3-(4-(1-aminocyclobutyl)phenyl)-2-(2-aminopyridin-3-yl)-3H-imidazo[4,5-b]pyridin-5-yl)phenyl)methanesulfonamide]	1.4 nM
Nc1ncccc1-c1nc2ccc(-c3cccc(C(=O)O)c3)nc2n1-c1ccc(C2(N)CCC2)cc1 [Example 376, 3-(3-(4-(1-aminocyclobutyl)phenyl)-2-(2-3aminopyridin-3-yl)-H-imidazo[4,5-b]pyridin-5-yl)benzoic acid]	3.8 nM

Reference: US8501770B2 (ArQule, Inc., priority 2009, dated 2013)
